Results as given in US8034931B2, “Process for producing substituted aminoquinazolinone derivative, intermediate therefor, and pest control agent” (Nihon Nohyaku Co., Ltd., priority 2003, dated 2011).

How the values were obtained:
Format in all cases: in vivo
[1] = system: White Peach Scale (Pseudaulacaspis pentagona); assay: Insecticidal effect on white peach scale, sprayed potato tuber (Test Examples 3 and 5); settings: 100 ppm liquid chemical, potato tuber with first-instar larvae, fourteen days after the treatment
From the text: Insecticidal Effect on White Peach Scale (Pseudaulacaspis pentagona)
A preparation containing each compound of the present invention listed in Tables 2 to 4 or each comparative compound as an active ingredient was dispersed in and diluted with water to obtain a 100 ppm liquid chemical. A potato tuber with first-instar larvae of white peach scale as parasites was sprayed with the liquid chemical with a spray gun. Fourteen days after the treatment, the living insects were counted. In the same manner as in Test Example 2, the corrected mortality was calculated and the insecticidal effect was judged.
Insecticidal Effect on White Peach Scale (Pseudaulacaspis pentagona) at a Low Dosage
The same test as in Test Example 3 was carried out except for changing the concentration of the liquid chemical to 30 ppm.

[2] = system: Green Peach Aphid (Myzus persicae); assay: Insecticidal effect on green peach aphid, foliar spray on potted Chinese cabbage (Test Example 1); settings: 500 ppm liquid chemical, sprayed on Chinese cabbage stalks and leaves, six days after the spraying
From the text: Insecticidal Effect on Green Peach Aphid (Myzus persicae)
A Chinese cabbage plant was planted in each of plastic pots with a diameter of 8 cm and a height of 8 cm, and green peach aphids were propagated on the plant, after which the parasites in each pot were counted. A preparation containing each compound of the present invention listed in Tables 2 to 4 or each comparative compound as an active ingredient was dispersed in and diluted with water to obtain a 500 ppm liquid chemical. The stalks and leaves of the potted Chinese cabbage plants were sprayed with the liquid chemical and air-dried, and then the pots were stored in a greenhouse. Six days after the spraying, green peach aphids parasitic on each Chinese cabbage plant were counted and the control efficacy was calculated by the following equation, whereby the insecticidal effect was judged according to the criterion shown below. Control efficacy=100−{(T×Ca)/(Ta×C)}×100 • Ta: number of parasites before spraying in treated group, • T: number of parasites after spraying in treated group, • Ca: number of parasites before spraying in untreated group, • C: number of parasites after spraying in untreated group.

[3] = system: Greenhouse Whitefly (Trialeuroddes vaporariorum); assay: Insecticidal effect on greenhouse whitefly, sprayed tomato leaf (Test Examples 2 and 4); settings: for Test Example 2: insecticidal effect (corrected mortality): 100 ppm liquid chemical, sprayed tomato leaf, 20 adult whiteflies, four days after the inoculation
From the text: Insecticidal Effect on Greenhouse Whitefly (Trialeuroddes vaporariorum)
A preparation containing each compound of the present invention listed in Tables 2 to 4 or each comparative compound as an active ingredient was dispersed in and diluted with water to obtain a 100 ppm liquid chemical. A tomato leaf set in a 20-ml vial with its stalk immersed in water was sprayed with the liquid chemical with a spray gun on a turntable. After air-dryness, the treated leaf was placed in a glass cylinder and inoculated with 20 adult greenhouse whiteflies. After the treatment, the glass cylinder was placed in a greenhouse. Four days after the inoculation, the living insects were counted. The corrected mortality was calculated according to the following equation and the insecticidal effect was judged according to the criterion shown below.
[formula] Criterion for Judgment:
Insecticidal Effect on Greenhouse (Trialeuroddes vaporariorum) at a Low Dosage
The same test as in Test Example 2 was carried out except for changing the concentration of the liquid chemical to 3 ppm.

CCCCOC(=O)N1C(=O)N(N=Cc2cccnc2)Cc2cc(C(F)(C(F)(F)F)C(F)(F)F)ccc21 [compound 20]
Test Example 3: insecticidal effect (corrected mortality) [1]: A (Corrected mortality 100%)
Test Example 1: insecticidal effect (control efficacy) [2]: A (Control efficacy 100%)
Test Example 2: insecticidal effect (corrected mortality) [3]: A (Corrected mortality 100%)

CC(=O)N1C(=O)N(N=Cc2cccnc2)Cc2ccccc21 [A, 1-acetyl-3-(3-pyridylmethylideneamino)-3,4-dihydro-2(1H)-quinazolinone, reference compound]
Test Example 3: insecticidal effect (corrected mortality) [1]: B (Corrected mortality 99-90%)
Test Example 1: insecticidal effect (control efficacy) [2]: A (Control efficacy 100%)
Test Example 4: controlling effect at a low dosage (corrected mortality) ([3]; 3 ppm liquid chemical, otherwise same as Test Example 2): C (Corrected mortality 89-80%)
Test Example 2: insecticidal effect (corrected mortality) [3]: A (Corrected mortality 100%)

COCC(=O)N1C(=O)N(N=Cc2cccnc2)Cc2cc(C(F)(C(F)(F)F)C(F)(F)F)ccc21 [compound 15]
Test Example 3: insecticidal effect (corrected mortality) [1]: A (Corrected mortality 100%)
Test Example 1: insecticidal effect (control efficacy) [2]: A (Control efficacy 100%)
Test Example 2: insecticidal effect (corrected mortality) [3]: A (Corrected mortality 100%)

CC(=O)N1C(=O)N(N=Cc2cccnc2)Cc2cc(C(F)(C(F)(F)F)C(F)(F)F)ccc21 [compound No. 8, 1-acetyl-3-(3-pyridylmethylideneamino)-3,4-dihydro-6-[1,2,2,2-tetrafluoro-1-(trifluoromethyl)ethyl]-2(1H)-quinazolinone]
Test Example 3: insecticidal effect (corrected mortality) [1]: A (Corrected mortality 100%)
Test Example 1: insecticidal effect (control efficacy) [2]: A (Control efficacy 100%)
Test Example 2: insecticidal effect (corrected mortality) [3]: A (Corrected mortality 100%)

O=C(C1CC1)N1C(=O)N(N=Cc2cccnc2)Cc2cc(C(F)(C(F)(F)F)C(F)(F)F)ccc21 [compound 14]
Test Example 3: insecticidal effect (corrected mortality) [1]: A (Corrected mortality 100%)
Test Example 1: insecticidal effect (control efficacy) [2]: A (Control efficacy 100%)
Test Example 2: insecticidal effect (corrected mortality) [3]: A (Corrected mortality 100%)

COCN1C(=O)N(N=Cc2cccnc2)Cc2cc(C(F)(C(F)(F)F)C(F)(F)F)ccc21 [compound 4]
Test Example 3: insecticidal effect (corrected mortality) [1]: A (Corrected mortality 100%)
Test Example 1: insecticidal effect (control efficacy) [2]: A (Control efficacy 100%)
Test Example 2: insecticidal effect (corrected mortality) [3]: A (Corrected mortality 100%)

O=C(c1ccc(F)cc1)N1C(=O)N(N=Cc2cccnc2)Cc2cc(C(F)(C(F)(F)F)C(F)(F)F)ccc21 [compound 28]
Test Example 3: insecticidal effect (corrected mortality) [1]: A (Corrected mortality 100%)
Test Example 1: insecticidal effect (control efficacy) [2]: A (Control efficacy 100%)
Test Example 2: insecticidal effect (corrected mortality) [3]: A (Corrected mortality 100%)

CCN1C(=O)N(N=Cc2cccnc2)Cc2cc(C(F)(C(F)(F)F)C(F)(F)F)ccc21 [compound 2]
Test Example 3: insecticidal effect (corrected mortality) [1]: A (Corrected mortality 100%)
Test Example 1: insecticidal effect (control efficacy) [2]: A (Control efficacy 100%)
Test Example 2: insecticidal effect (corrected mortality) [3]: A (Corrected mortality 100%)

CCC(=O)N1C(=O)N(N=Cc2cccnc2)Cc2cc(C(F)(C(F)(F)F)C(F)(F)F)ccc21 [compound 9]
Test Example 3: insecticidal effect (corrected mortality) [1]: A (Corrected mortality 100%)
Test Example 1: insecticidal effect (control efficacy) [2]: A (Control efficacy 100%)
Test Example 2: insecticidal effect (corrected mortality) [3]: A (Corrected mortality 100%)

CCC(C)C(=O)N1C(=O)N(N=Cc2cccnc2)Cc2cc(C(F)(C(F)(F)F)C(F)(F)F)ccc21 (stereo not shown) [compound 13]
Test Example 3: insecticidal effect (corrected mortality) [1]: A (Corrected mortality 100%)
Test Example 1: insecticidal effect (control efficacy) [2]: A (Control efficacy 100%)
Test Example 2: insecticidal effect (corrected mortality) [3]: A (Corrected mortality 100%)

O=C(c1ccc(Cl)c(Cl)c1)N1C(=O)N(N=Cc2cccnc2)Cc2cc(C(F)(C(F)(F)F)C(F)(F)F)ccc21 [compound 31]
Test Example 3: insecticidal effect (corrected mortality) [1]: A (Corrected mortality 100%)
Test Example 1: insecticidal effect (control efficacy) [2]: A (Control efficacy 100%)
Test Example 2: insecticidal effect (corrected mortality) [3]: A (Corrected mortality 100%)

O=C(c1cccc(C(F)(F)F)c1)N1C(=O)N(N=Cc2cccnc2)Cc2cc(C(F)(C(F)(F)F)C(F)(F)F)ccc21 [compound 26]
Test Example 3: insecticidal effect (corrected mortality) [1]: A (Corrected mortality 100%)
Test Example 1: insecticidal effect (control efficacy) [2]: A (Control efficacy 100%)
Test Example 2: insecticidal effect (corrected mortality) [3]: A (Corrected mortality 100%)

Cc1cccc(C(=O)N2C(=O)N(N=Cc3cccnc3)Cc3cc(C(F)(C(F)(F)F)C(F)(F)F)ccc32)c1 [compound 30]
Test Example 3: insecticidal effect (corrected mortality) [1]: A (Corrected mortality 100%)
Test Example 1: insecticidal effect (control efficacy) [2]: A (Control efficacy 100%)
Test Example 2: insecticidal effect (corrected mortality) [3]: A (Corrected mortality 100%)

O=C(c1ccccc1)N1C(=O)N(N=Cc2cccnc2)Cc2cc(C(F)(C(F)(F)F)C(F)(F)F)ccc21 [compound 24]
Test Example 3: insecticidal effect (corrected mortality) [1]: A (Corrected mortality 100%)
Test Example 1: insecticidal effect (control efficacy) [2]: A (Control efficacy 100%)
Test Example 2: insecticidal effect (corrected mortality) [3]: A (Corrected mortality 100%)

CCC(C)OC(=O)N1C(=O)N(N=Cc2cccnc2)Cc2cc(C(F)(C(F)(F)F)C(F)(F)F)ccc21 (stereo not shown) [compound 21]
Test Example 3: insecticidal effect (corrected mortality) [1]: A (Corrected mortality 100%)
Test Example 1: insecticidal effect (control efficacy) [2]: A (Control efficacy 100%)
Test Example 2: insecticidal effect (corrected mortality) [3]: A (Corrected mortality 100%)

O=CN1C(=O)N(N=Cc2cccnc2)Cc2cc(C(F)(C(F)(F)F)C(F)(F)F)ccc21 [compound 7]
Test Example 3: insecticidal effect (corrected mortality) [1]: A (Corrected mortality 100%)
Test Example 1: insecticidal effect (control efficacy) [2]: A (Control efficacy 100%)
Test Example 2: insecticidal effect (corrected mortality) [3]: A (Corrected mortality 100%)

CCCCC(=O)N1C(=O)N(N=Cc2cccnc2)Cc2cc(C(F)(C(F)(F)F)C(F)(F)F)ccc21 [compound 12]
Test Example 3: insecticidal effect (corrected mortality) [1]: A (Corrected mortality 100%)
Test Example 1: insecticidal effect (control efficacy) [2]: A (Control efficacy 100%)
Test Example 2: insecticidal effect (corrected mortality) [3]: A (Corrected mortality 100%)

CCCN1C(=O)N(N=Cc2cccnc2)Cc2cc(C(F)(C(F)(F)F)C(F)(F)F)ccc21 [compound No. 3]
Test Example 3: insecticidal effect (corrected mortality) [1]: A (Corrected mortality 100%)
Test Example 1: insecticidal effect (control efficacy) [2]: A (Control efficacy 100%)
Test Example 2: insecticidal effect (corrected mortality) [3]: A (Corrected mortality 100%)

O=C(c1cccc2ccccc12)N1C(=O)N(N=Cc2cccnc2)Cc2cc(C(F)(C(F)(F)F)C(F)(F)F)ccc21 [compound No. 33]
Test Example 3: insecticidal effect (corrected mortality) [1]: A (Corrected mortality 100%)
Test Example 1: insecticidal effect (control efficacy) [2]: A (Control efficacy 100%)
Test Example 2: insecticidal effect (corrected mortality) [3]: A (Corrected mortality 100%)

N#CCN1C(=O)N(N=Cc2cccnc2)Cc2cc(C(F)(C(F)(F)F)C(F)(F)F)ccc21 [compound 6]
Test Example 3: insecticidal effect (corrected mortality) [1]: A (Corrected mortality 100%)
Test Example 1: insecticidal effect (control efficacy) [2]: A (Control efficacy 100%)
Test Example 2: insecticidal effect (corrected mortality) [3]: A (Corrected mortality 100%)

CCOC(=O)N1C(=O)N(N=Cc2cccnc2)Cc2cc(C(F)(C(F)(F)F)C(F)(F)F)ccc21 [compound 17]
Test Example 3: insecticidal effect (corrected mortality) [1]: A (Corrected mortality 100%)
Test Example 1: insecticidal effect (control efficacy) [2]: A (Control efficacy 100%)
Test Example 2: insecticidal effect (corrected mortality) [3]: A (Corrected mortality 100%)

CN1C(=O)N(N=Cc2cccnc2)Cc2cc(C(F)(C(F)(F)F)C(F)(F)F)ccc21 [compound No. 1, 1-methyl-3-(3-pyridylmethylideneamino)-3,4-dihydro-6-[1,2,2,2-tetrafluoro-1-(trifluoromethyl)ethyl]-2(1H)-quinazolinone]
Test Example 3: insecticidal effect (corrected mortality) [1]: A (Corrected mortality 100%)
Test Example 1: insecticidal effect (control efficacy) [2]: A (Control efficacy 100%)
Test Example 2: insecticidal effect (corrected mortality) [3]: A (Corrected mortality 100%)

O=C(c1ccc(-c2ccccc2)cc1)N1C(=O)N(N=Cc2cccnc2)Cc2cc(C(F)(C(F)(F)F)C(F)(F)F)ccc21 [compound 32]
Test Example 3: insecticidal effect (corrected mortality) [1]: A (Corrected mortality 100%)
Test Example 1: insecticidal effect (control efficacy) [2]: A (Control efficacy 100%)
Test Example 2: insecticidal effect (corrected mortality) [3]: A (Corrected mortality 100%)
